From US8034314B2, “Photoreactive compound specifically binding to calcium binding proteins” (priority 2004, dated 2011)

Columns and labels:
[1] = tested on: mitochondrial uniporter (Ca2+ uptake in mitochondria); assay: Ca2+ uptake/accumulation in isolated mitochondria; assay type: biochemical, rat; conditions: no UV; mean ± SEM of 3 to 5 experiments
Procedure: (§1) Sarcoplasmic reticulum (SR) membranes were prepared from rabbit fast twitch skeletal muscle as described by Saito [Saito et al.: J. Cell Biol. 99 (1984) 875-85]. Mitochondria were isolated from rat liver as described by us previously [Gincel D. et al.: Biochem J. 358 (2001) 147-55]. VDAC was purified by a method developed in our laboratory, using columns of hydroxyapatite and reactive red agarose [Gincel D. et al.: J. Bioenerget. Biomembr. 32 (2000) 571-83].
Ca^2+-accumulation in freshly prepared mitochondria (0.5 mg/ml) was assayed for 1 to 20 minutes at 30° C. in the presence of 225 mM mannitol, 75 mM sucrose, 120 μM CaCl2 (containing 3×10^4 cpm/nmol ^45Ca^2+), 5 mM HEPES/KOH pH 7.0, and 5 mM succinate with 0.1 mM Pi, or 4 mM MgCl2 with 3 mM ATP. The Ca^2+-uptake was terminated by rapid Millipore filtration, followed by a wash with 5 ml of 0.15 M KCl. The Ca^2+-accumulation in SR was determined as described previously [Shoshan-Barmatz V. & Shaineberg A.: Biochim. Biophys. Acta 1065 (1991) 82-8]. Electron transport from succinate to cytochrome c was described in above cited article [Gincel D. et al.: J. Bioenerget. Biomembr. 32 (2000) 571-83].
The effect of AzRu on mitochondrial process of electron transport from the donor succinate to the acceptor cytochrome c was characterized as described above. Although said electron transfer involves several dozens electron transfer carriers, this reaction was not affected by azido-ruthenium of this invention.
(§2) The hexavalent RuR and the trivalent Ru360 have been employed in various studies as inhibitors of Ca^2+-dependent reactions. As shown here, even with no photoactivation, AzRu, in contrast to RuR and Ru360, was effective in inhibiting the SR Ca^2+-pump (Table 3). […] This may open the way to inhibit other Ca^2+-dependent activities that are not sensitive to RuR, such as the plasma membrane Ca^2+-ATPase. […] RuR was employed to improve mitochondrial production in ischemic reperfused pig myocardium, was employed in the nervous system to follow neuronal death progress and can act as an anti-oxidant in certain conditions. Considering the potent activity of AzRu in RuR-insensitive reactions (see Table 3), its applications in various biological studies should be explored. Ca^2+ accumulation in SR and mitochondria was assayed as described above in the absence and presence of different concentrations of RuR (0.05-100 μM), Ru360 (0.01-100 μM) or AzRu (0.1-100 μM). The concentration required for 50% inhibition (IC50) was derived from the plot of Ca^2+ accumulation activity or ryanodine binding as a function of the reagent concentration. The results are the mean±SEM of 3 to 5 experiments (Table 3).

[2] = target: T1, ryanodine receptor (RyR) / Ca2+-release channel (Oryctolagus cuniculus, UniProt P11716); assay: [3H]ryanodine binding to SR membranes; design: species or system rabbit; conditions: no UV; mean ± SEM of 3 to 5 experiments
T1 construct: from tissue; host or cells: rabbit fast twitch skeletal muscle SR membranes
T1 sequence (P11716 whole entry): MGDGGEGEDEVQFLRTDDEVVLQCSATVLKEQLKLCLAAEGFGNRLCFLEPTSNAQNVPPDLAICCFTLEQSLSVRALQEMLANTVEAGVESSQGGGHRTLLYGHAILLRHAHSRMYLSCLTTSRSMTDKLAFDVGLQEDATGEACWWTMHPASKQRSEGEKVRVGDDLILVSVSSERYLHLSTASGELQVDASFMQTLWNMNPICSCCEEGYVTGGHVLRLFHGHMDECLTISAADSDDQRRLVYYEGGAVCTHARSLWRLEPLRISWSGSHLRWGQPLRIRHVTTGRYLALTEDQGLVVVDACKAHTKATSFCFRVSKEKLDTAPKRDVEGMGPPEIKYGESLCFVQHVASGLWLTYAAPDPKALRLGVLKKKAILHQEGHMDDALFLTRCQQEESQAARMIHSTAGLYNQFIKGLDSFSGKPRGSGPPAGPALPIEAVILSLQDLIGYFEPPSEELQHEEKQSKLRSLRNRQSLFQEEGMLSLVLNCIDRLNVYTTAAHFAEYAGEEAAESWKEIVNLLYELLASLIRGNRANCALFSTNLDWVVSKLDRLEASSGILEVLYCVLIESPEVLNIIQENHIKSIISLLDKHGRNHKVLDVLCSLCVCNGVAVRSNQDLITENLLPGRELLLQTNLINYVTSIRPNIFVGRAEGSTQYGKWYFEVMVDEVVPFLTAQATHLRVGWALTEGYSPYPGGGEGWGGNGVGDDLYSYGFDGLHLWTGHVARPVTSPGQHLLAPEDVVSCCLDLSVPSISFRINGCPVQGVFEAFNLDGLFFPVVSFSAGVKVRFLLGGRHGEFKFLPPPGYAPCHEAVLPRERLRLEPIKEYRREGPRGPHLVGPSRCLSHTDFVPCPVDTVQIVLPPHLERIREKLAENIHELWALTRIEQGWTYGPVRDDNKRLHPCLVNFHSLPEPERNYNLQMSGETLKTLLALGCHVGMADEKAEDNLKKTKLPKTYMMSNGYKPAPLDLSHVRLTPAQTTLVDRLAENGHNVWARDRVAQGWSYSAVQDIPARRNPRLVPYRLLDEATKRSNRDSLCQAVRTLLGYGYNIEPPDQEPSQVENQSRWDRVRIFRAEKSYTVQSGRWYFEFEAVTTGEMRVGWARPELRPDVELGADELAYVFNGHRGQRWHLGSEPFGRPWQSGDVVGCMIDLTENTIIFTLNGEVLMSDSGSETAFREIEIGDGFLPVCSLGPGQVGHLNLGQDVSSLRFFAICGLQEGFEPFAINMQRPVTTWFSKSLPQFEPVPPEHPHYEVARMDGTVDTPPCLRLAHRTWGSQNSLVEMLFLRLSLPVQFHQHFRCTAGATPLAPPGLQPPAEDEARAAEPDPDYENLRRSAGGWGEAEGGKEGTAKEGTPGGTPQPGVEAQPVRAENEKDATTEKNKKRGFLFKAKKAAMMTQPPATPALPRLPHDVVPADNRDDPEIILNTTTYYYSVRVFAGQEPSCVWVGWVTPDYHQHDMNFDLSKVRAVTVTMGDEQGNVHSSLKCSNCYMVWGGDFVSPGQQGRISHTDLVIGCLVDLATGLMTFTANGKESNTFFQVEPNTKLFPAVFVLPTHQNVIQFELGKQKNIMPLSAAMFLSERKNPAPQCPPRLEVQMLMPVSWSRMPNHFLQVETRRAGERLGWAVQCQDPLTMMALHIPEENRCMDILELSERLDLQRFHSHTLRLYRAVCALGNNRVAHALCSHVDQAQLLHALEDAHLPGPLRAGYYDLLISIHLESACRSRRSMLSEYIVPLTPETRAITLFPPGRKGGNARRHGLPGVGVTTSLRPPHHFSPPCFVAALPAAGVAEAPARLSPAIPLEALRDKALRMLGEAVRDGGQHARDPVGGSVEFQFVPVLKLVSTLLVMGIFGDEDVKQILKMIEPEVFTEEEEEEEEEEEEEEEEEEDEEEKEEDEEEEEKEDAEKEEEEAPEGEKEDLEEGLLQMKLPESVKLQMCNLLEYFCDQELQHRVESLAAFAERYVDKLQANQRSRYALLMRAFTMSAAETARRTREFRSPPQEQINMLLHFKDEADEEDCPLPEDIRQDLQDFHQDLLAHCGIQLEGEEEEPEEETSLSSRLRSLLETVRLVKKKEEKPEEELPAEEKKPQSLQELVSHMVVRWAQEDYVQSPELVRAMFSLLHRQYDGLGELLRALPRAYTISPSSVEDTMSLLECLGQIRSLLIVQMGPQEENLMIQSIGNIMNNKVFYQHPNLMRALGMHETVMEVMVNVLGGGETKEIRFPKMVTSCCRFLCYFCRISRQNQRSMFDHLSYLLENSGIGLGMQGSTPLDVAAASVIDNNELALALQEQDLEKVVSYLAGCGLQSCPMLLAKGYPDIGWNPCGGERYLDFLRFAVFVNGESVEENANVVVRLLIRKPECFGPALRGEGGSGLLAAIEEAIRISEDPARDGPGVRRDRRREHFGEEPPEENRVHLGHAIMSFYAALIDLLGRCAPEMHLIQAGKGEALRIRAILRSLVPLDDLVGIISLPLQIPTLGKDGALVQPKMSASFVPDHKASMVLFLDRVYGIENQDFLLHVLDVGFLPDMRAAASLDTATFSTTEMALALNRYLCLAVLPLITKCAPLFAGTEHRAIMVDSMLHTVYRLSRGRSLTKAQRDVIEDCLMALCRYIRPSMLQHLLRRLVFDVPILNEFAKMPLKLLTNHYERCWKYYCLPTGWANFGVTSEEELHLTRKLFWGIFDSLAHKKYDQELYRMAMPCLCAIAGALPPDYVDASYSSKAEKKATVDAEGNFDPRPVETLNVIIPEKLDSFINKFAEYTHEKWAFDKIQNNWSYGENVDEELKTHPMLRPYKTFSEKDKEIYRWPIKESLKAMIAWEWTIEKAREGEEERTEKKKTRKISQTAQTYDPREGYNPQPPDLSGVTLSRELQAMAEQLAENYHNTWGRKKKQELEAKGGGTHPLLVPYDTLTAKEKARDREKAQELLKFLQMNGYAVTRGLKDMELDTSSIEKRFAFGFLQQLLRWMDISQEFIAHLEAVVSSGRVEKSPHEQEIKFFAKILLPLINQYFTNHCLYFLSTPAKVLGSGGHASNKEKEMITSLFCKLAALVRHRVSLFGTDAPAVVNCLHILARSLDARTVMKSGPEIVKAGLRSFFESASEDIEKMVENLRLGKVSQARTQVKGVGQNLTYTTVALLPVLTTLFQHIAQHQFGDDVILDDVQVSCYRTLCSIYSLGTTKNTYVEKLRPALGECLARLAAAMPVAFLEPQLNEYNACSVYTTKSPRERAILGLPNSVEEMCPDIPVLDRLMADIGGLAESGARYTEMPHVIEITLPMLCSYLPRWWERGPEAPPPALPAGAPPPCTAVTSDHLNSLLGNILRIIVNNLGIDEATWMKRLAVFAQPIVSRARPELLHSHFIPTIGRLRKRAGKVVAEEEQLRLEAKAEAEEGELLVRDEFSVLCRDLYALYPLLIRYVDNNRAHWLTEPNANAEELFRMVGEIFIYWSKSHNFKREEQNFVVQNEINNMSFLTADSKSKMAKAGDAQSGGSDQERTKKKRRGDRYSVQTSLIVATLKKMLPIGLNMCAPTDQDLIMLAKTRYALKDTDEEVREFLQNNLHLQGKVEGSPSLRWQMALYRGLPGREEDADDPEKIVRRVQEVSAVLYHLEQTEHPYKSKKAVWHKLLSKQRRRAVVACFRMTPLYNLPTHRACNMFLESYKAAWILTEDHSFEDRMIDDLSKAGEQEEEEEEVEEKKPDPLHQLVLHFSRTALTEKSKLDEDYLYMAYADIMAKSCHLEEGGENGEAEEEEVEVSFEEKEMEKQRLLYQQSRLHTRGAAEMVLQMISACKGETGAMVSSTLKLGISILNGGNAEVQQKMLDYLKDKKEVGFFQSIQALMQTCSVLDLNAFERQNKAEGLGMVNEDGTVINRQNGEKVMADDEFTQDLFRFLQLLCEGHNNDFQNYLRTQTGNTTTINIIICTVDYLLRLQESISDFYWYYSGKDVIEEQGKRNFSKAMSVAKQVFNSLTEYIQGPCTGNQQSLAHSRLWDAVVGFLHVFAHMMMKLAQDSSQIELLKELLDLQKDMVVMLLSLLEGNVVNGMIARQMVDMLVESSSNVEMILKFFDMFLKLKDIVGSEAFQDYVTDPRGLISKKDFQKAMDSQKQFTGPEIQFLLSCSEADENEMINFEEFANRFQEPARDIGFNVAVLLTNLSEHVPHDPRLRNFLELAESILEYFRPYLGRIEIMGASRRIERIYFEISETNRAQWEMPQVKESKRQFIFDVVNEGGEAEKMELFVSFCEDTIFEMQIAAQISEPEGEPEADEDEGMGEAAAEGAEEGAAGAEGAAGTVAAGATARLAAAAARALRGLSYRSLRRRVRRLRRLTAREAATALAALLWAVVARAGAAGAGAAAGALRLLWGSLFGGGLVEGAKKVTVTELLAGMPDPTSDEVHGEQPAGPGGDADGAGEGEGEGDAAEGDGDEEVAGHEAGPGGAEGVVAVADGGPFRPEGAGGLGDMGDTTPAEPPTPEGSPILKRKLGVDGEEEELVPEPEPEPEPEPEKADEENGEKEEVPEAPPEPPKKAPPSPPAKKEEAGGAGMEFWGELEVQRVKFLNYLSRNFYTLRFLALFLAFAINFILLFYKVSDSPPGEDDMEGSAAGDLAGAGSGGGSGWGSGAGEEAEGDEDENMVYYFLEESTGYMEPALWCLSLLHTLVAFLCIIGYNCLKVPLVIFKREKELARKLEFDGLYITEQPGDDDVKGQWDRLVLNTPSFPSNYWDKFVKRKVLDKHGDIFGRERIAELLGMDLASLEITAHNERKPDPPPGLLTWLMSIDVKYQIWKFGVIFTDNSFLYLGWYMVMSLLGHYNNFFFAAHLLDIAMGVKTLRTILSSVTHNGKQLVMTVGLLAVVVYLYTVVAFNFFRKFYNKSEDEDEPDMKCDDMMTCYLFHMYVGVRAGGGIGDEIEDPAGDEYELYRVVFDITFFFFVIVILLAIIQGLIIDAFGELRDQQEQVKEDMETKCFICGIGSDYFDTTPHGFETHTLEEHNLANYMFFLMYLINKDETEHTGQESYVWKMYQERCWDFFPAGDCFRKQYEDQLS
Procedure: as §1
For the determination of [^3H]ryanodine binding, SR membranes were incubated for 20-60 min at 37° C. in a standard binding solution containing 1M NaCl, 20 mM MOPS (pH 7.4), 50 μM free Ca^2+ and 20 nM [^3H]ryanodine. Unbound ryanodine was separated from protein-bound ryanodine by vacuum filtration of the sample through nitrocellulose filters (0.45 μm), followed by two washes with 4 ml ice-cold buffer containing 0.2 M NaCl, 10 mM MOPS (pH 7.4) and 50 μM CaCl2. The retained radioactivity in the dried filters was determined by liquid scintillation counting. Specific binding of [^3H]ryanodine was defined as the difference between the binding in the presence of 20 nM [^3H]ryanodine and in the presence of 20 μM unlabeled ryanodine.
as §2

[3] = tested on: U-937 human monocytic cell line; assay: STS-induced apoptotic cell death of U-937 cells (acridine orange/ethidium bromide staining); assay type: cell-based; conditions: STS 1.25 μM, no AzRu
Procedure: The U-937 human monocytic cell line was grown under an atmosphere of 95% air and 5% CO2 in RPMI 1640 supplemented with 10% fetal calf serum (FCS), 1 mM L-glutamine, 100 U/ml penicillin, and 100 μg/ml streptomycin. Cells were plated at a density of 5.4×10^4 cells/cm^2 in 24-well plates and then incubated with or without AzRu for 18 hr before exposure to 1.25 μM staurosporine (STS) to induce apoptosis. Cell viability was analyzed 5 and 7 hrs after STS addition by staining with 100 μg/ml acridine orange (AcOr) and 100 μg/ml ethidium bromide (EtBr) in PBS. The cells were then visualized by fluorescence microscopy (Olympus IX51) and images were recorded on an Olympus DP70 camera, using an SWB filter.
AzRu had no effect on the viability of the cells that were not exposed to STS. In FIG. 13 A, U-937 cells were incubated without (a, c) or with AzRu (10 μM) (b,d) for 18 hrs and thereafter were exposed to STS (1.25 μM) (c and d). After five hours the cells were stained with acridine orange and ethidium bromide. Arrows indicate cells in early apoptotic state, represented as degraded nucleus, but with intact cell membrane (stained by acridine orange). Arrowheads indicate a late apoptotic state, as shown by the presence of a degraded nucleus (stained by both acridine orange and ethidium bromide). Scale bar, 20 μm. In FIG. 13 B, quantitative analysis of apoptotic cell death in control cells and cells exposed to AzRu was assessed 5 and 7 hr after their exposure to STS (1.25 by ANOVA and t-test. P<0.001 was considered statistically significant (***). Data are the means±SEM, n=3. In each independent experiment, approximately 200 cells were counted for each treatment.

Compound	IC50 [1]	IC50 [2]	Apoptotic cell death (% of the cells) ([3]; 5 hrs exposure)	Apoptotic cell death (% of the cells) ([3]; 7 hrs exposure)
Ru360 [reference compound]	0.067 ± 0.008 µM	14.8 ± 2.8 µM	–	–
CN[C@@H]1C[C@H]2O[C@@](C)([C@@H]1OC)n1c3ccccc3c3c4c(c5c6ccccc6n2c5c31)C(=O)NC4 [STS, staurosporine, reference compound]	–	–	about 42%	~76%
